From the NIST ThermoML archive (doi:10.1016/j.jct.2018.01.014)
Where “and” joins values, the source holds several entries; their conditions need not be identical. Identical values can stand only once. Numbers after ± are expanded uncertainties.

Settings: Liquid, Transpiration method

CN1CCC[C@H]1c1cccnc1 [(-)-3-(N-methylpyrrolidino)pyridine]
Settings	vapor or sublimation pressure
288.7 K	0.002398 ± 0.00015 kPa
293.8 K	0.003508 ± 0.00023 kPa
298.5 K	0.005519 ± 0.00039 kPa
303.3 K	0.008212 ± 0.00056 kPa
308.2 K	0.01232 ± 0.00082 kPa and 0.01187 ± 0.00079 kPa
313.1 K	0.01822 ± 0.0012 kPa
318.1 K	0.02642 ± 0.0017 kPa
323 K	0.03648 ± 0.0023 kPa
327.9 K	0.05164 ± 0.0033 kPa
333.2 K	0.07337 ± 0.0046 kPa
335.7 K	0.08301 ± 0.0052 kPa
338.2 K	0.1012 ± 0.0063 kPa
340.7 K	0.1124 ± 0.0071 kPa
343.1 K	0.1387 ± 0.0088 kPa
345.6 K	0.1639 ± 0.01 kPa
348.2 K	0.2061 ± 0.013 kPa
350.6 K	0.222 ± 0.014 kPa
353.2 K	0.2733 ± 0.017 kPa
358.1 K	0.3726 ± 0.023 kPa
363.2 K	0.5077 ± 0.032 kPa
368.1 K	0.6692 ± 0.042 kPa
373.1 K	0.8635 ± 0.053 kPa
